Measurements as given in publication PMC4577212, “X-Ray Structure and Mutagenesis Studies of the N-Isopropylammelide Isopropylaminohydrolase, AtzC” (PLoS ONE, 2015).

Molecular target: T1, AtzC (N-isopropylammelide isopropylaminohydrolase) (Pseudomonas sp. ADP, UniProt O52063)
T1 construct: full length, N-terminal His-tag (pETCC2, from pET14b), expressed in E. coli BL21(DE3); tag cut with thrombin for crystals; homotetramer ~210 kDa; Zn enzyme
T1 sequence (O52063 1-403): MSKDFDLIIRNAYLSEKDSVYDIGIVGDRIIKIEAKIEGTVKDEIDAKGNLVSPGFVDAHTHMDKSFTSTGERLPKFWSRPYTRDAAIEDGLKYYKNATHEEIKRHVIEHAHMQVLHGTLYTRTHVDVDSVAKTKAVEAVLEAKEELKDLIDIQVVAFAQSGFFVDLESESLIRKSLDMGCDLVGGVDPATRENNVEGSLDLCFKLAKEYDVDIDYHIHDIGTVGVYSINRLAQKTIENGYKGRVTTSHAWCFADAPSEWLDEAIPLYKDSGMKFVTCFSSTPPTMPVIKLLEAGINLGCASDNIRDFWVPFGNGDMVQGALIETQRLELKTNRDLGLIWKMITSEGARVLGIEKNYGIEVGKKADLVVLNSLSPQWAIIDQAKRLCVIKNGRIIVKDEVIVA
Assay: X-ray crystal structure, […] Å
Format: binding
Conditions: crystals from 2.4 M sodium malonate pH 7; active site; tag cut with thrombin

## O=C(O)CC(=O)O [malonic acid]
  X-ray crystal structure, 1.84 Å: The malonate (a poor inhibitor of AtzC, Figure E in S1 File) adopts a planar conformation
